Source: patent US8975417B2, “Pyrazolopyrrolidine derivatives and their use in the treatment of disease” (Novartis AG, priority 2013, dated 2015)

Key:
Settings in all cases: biochemical
His-Brd4(44-477) = His-Brd4(44-477) (Homo sapiens (Human), UniProt O60885); assay: TR-FRET in-vitro binding assay for BRD4
Procedure: (§1) TR-FRET In-Vitro Binding Assays for BRD2, BRD3, and BRD4:
(§2) All assays were performed in 384-well microtiter plates. Each assay plate contained 8-point serial dilutions for 40 test compounds, plus 16 high- and 16 low controls. Liquid handling and incubation steps were done on an Innovadyne Nanodrop Express equipped with a robotic arm (Thermo CatX, Perkin Elmer/Caliper Twister II) and an incubator (Liconic STX40, Thermo Cytomat 2C450). The assay plates were prepared by addition of 50 nl per well of compound solution in 90% DMSO HummingBird nanodispenser (Zinsser Analytic). The assay was started by stepwise addition of 4.5 μL per well of bromo domain protein (50 mM HEPES, pH 7.5, 0.005% Tween20, 0.1% BSA, 50 mM NaCl, 45 nM His-Brd2(60-472) or 45 nM His-Brd3(20-477) or 45 nM His-Brd4(44-477) all proteins produced in-house) and 4.5 μL per well of peptide solution (50 mM HEPES, pH 7.5, 0.005% Tween20, 0.1% BSA, 50 mM NaCl, 60 nM acetyl-histone H4 (AcK 5, 8, 12, 16) (Biosyntan GmbH)). Reactions were incubated at 30° C. for 35 minutes. Subsequently 4.5 μL per well detection mix (50 mM HEPES, pH 7.5, 0.005% Tween20, 0.1% BSA, 50 mM NaCl, 3 nM Eu-labeled anti-His6 antibody, 21 nM streptavidin-allophycocyanin) were added. After minutes incubation at 30° C., plates were measured in a Perkin Elmer EnVision multilabel reader.
(§3) Test compounds were dissolved in DMSO (10 mM) and transferred into 1.4 mL flat bottom or V-shaped Matrix tubes carrying a unique 2D matrix. The stock solutions were stored at […] if not used immediately. For the test procedure the vials were defrosted and identified by a scanner whereby a working sheet was generated that guided the subsequent working steps. Compound dilutions were made in 96 well plates. This format enabled the assay of maximally […] at 8 concentrations (single points) including 4 reference compounds, if desired (known BET inhibitors from the prior art, for this and other assays of the type disclosed herein). The dilution protocol included the production of “pre-dilution plates”, “master plates” and “assay plates”.
(§4) Polypropylene 96-well plates were used as pre-dilution plates. […] All dilution steps were done on a HamiltonSTAR robot.
(§5) 30 μL of individual compound dilutions including standard compound and controls of the 4 “pre-dilution plates” were transferred into a 384-well “master plate” including the following concentrations 10000, […], 1000, 300, 100, 30, 10 and 3 μM, respectively in 90% of DMSO.
(§6) Identical “assay plates” were then prepared by pipetting 50 nL each of compound dilutions of the “master plates” into 384-well “assay plates” by means of a HummingBird 384-channel dispenser. These plates were used directly for the assay which was performed in a total volume of 13.55 μL.

His-Brd2(60-472) = His-Brd2(60-472) (Homo sapiens (Human), UniProt P25440); assay: TR-FRET in-vitro binding assay for BRD2
Sequence of His-Brd2(60-472) (P25440 60-472): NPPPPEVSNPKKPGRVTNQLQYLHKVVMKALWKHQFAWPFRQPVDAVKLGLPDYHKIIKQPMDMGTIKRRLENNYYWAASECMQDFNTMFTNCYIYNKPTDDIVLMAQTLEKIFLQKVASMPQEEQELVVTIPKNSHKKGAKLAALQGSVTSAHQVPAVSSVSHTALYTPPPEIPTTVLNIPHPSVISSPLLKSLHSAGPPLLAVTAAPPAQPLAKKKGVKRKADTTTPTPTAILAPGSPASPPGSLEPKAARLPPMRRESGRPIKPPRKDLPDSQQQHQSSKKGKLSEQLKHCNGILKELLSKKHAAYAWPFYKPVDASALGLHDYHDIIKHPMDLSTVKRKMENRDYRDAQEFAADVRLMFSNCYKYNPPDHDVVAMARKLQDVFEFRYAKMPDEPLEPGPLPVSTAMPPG
Procedure: as §1, §2, §3, §4, §5, §6

[1] = target: His-CREBBP (1081-1197) bromodomain (Homo sapiens (Human), UniProt Q92793); assay: AlphaScreen in-vitro binding assay for CREBBP
Sequence of His-CREBBP (1081-1197) bromodomain (Q92793 1081-1197): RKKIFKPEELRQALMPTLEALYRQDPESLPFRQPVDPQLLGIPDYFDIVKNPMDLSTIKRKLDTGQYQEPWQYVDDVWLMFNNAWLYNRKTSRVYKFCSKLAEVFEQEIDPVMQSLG
Procedure: AlphaScreen In-Vitro Binding Assay for CREBBP
In order to assess bromodomain selectivity, we set up a binding assay using the bromodomain encoded by the CREBBP gene. […] Reactions were incubated at 30° C. for 35 minutes. Subsequently 4.5 μL per well detection mix (50 mM HEPES, pH 7.5, 0.005% Tween20, 0.02% BSA, 150 mM NaCl, 45 μg/ml Ni-chelate acceptor beads, 45 μg/mL streptavidin-donor beads) (Perkin Elmer)) were added. After 60 minutes incubation at room temperature, plates were measured in a Perkin Elmer EnVision multilabel reader. IC50 values were determined from percent inhibition values at different compound concentrations by non-linear regression analysis.
as §3, §4
These plates were used directly for the assay which was performed in a total volume of 13.55 μL.

His-Brd3(20-477) = His-Brd3(20-477) (Homo sapiens (Human), UniProt Q15059); assay: TR-FRET in-vitro binding assay for BRD3
Sequence of His-Brd3(20-477) (Q15059 20-477): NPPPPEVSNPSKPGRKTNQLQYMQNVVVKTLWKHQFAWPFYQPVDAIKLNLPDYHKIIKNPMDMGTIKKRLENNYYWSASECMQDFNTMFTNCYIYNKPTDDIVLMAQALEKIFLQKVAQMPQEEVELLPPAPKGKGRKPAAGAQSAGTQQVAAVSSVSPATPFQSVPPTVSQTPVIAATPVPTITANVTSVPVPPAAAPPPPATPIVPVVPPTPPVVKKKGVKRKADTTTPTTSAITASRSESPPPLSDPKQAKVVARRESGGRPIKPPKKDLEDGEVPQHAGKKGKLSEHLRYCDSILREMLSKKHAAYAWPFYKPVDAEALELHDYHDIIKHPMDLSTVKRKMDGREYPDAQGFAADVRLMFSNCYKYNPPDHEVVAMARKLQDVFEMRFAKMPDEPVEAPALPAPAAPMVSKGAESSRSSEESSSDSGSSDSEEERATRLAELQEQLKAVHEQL
Procedure: as §1, §2, §3, §4, §5, §6

Row | SMILES | IC50 (His-Brd4(44-477)) [nM] | IC50 (His-Brd2(60-472)) [nM] | IC50 [1] [µM] | IC50 (His-Brd3(20-477)) [nM]
1 | COCc1nn(C2CC2)c2c1C(c1ccc(Cl)cc1)N(c1cc(C)c(=O)n(C)c1)C2=O (racemic) [Example 132, 4-(4-chlorophenyl)-1-cyclopropyl-5-(1,5-dimethyl-6-oxo-1,6-dihydropyridin-3-yl)-3-(methoxymethyl)-4,5-dihydropyrrolo[3,4-c]pyrazol-6(1H)-one] | 67 | 81 | 4.8 | 89
2 | Cc1cc(N2C(=O)c3nn(C4CC4)c(C)c3C2c2ccc(Cl)cc2)cn(C)c1=O (stereo not drawn) [Example 20, 4-(4-chlorophenyl)-2-cyclopropyl-5-(1,5-dimethyl-6-oxo-1,6-dihydropyridin-3-yl)-3-methyl-4,5-dihydropyrrolo[3,4-c]pyrazol-6(2H)-one] | 88 | 130 | 1.1 | 77
3 | Cc1noc2ccc(N3C(=O)c4nn(C)c(C)c4C3c3ccc(Cl)cc3)cc12 (stereo not drawn) [Example 33, 4-(4-chlorophenyl)-2,3-dimethyl-5-(3-methylbenzo[d]isoxazol-5-yl)-4,5-dihydropyrrolo[3,4-c]pyrazol-6(2H)-one] | 700 | 1200 | > 37 | 920
4 | CC(C)n1ncc2c1C(=O)N(c1cc(Cl)c(=O)n(C)c1)C2c1ccc(Cl)cc1 (stereo not drawn) [Example 38, 5-(5-chloro-1-methyl-6-oxo-1,6-dihydropyridin-3-yl)-4-(4-chlorophenyl)-1-isopropyl-4,5-dihydropyrrolo[3,4-c]pyrazol-6(1H)-one] | 62 | 49 | 1.9 | 76
5 | Cn1cc(N2C(=O)c3nn(C4CC4)c(C(F)(F)F)c3C2c2ccc(Cl)cc2)cc(Cl)c1=O (stereo not drawn) [Example 40, 5-(5-chloro-1-methyl-6-oxo-1,6-dihydropyridin-3-yl)-4-(4-chlorophenyl)-2-cyclopropyl-3-(trifluoromethyl)-4,5-dihydropyrrolo[3,4-c]pyrazol-6(2H)-one] | 220 | 160 | 0.74 | 150
6 | Cc1cc(N2C(=O)c3nn(C4CC4)c(C(F)(F)F)c3C2c2ccc(Cl)cc2)cn(C)c1=O (stereo not drawn) [Example 43, 4-(4-chlorophenyl)-2-cyclopropyl-5-(1,5-dimethyl-6-oxo-1,6-dihydropyridin-3-yl)-3-(trifluoromethyl)-4,5-dihydropyrrolo[3,4-c]pyrazol-6(2H)-one] | 120 | 100 | 0.66 | 110
7 | Cc1nn(C2CC2)c2c1[C@H](c1ccc(Cl)cc1)N(c1cc(C)c(=O)n(C)c1)C2=O [Example 48, (S)-4-(4-chlorophenyl)-1-cyclopropyl-5-(1,5-dimethyl-6-oxo-1,6-dihydropyridin-3-yl)-3-methyl-4,5-dihydropyrrolo[3,4-c]pyrazol-6(1H)-one] | > 6700 | > 6700 | > 5.1 | > 6700
8 | Cc1nn(C2CC2)c2c1C(c1ccc(Cl)cc1)N(c1cc(C)c3nnn(C)c3c1)C2=O (stereo not drawn) [Example 85, 4-(4-chlorophenol)-1-cyclopropyl-5-(1,4-dimethyl-1H-benzo[d][1,2,3]triazol-6-yl)-3-methyl-4,5-dihydropyrrolo[3,4-c]pyrazol-6(1H)-one] | 14 | 24 | 8.3 | 16

The next lines start with the values.

Row | IC50 (His-Brd4(44-477)) [nM] | IC50 (His-Brd2(60-472)) [nM] | IC50 [1] [µM] | IC50 (His-Brd3(20-477)) [nM] | SMILES
9 | 150 | 230 | 5.9 | 150 | Cc1nn(C2CC2)c2c1C(c1ccc(Cl)cc1)N(c1cc(Cl)c(=O)n(C)c1)C2=O (racemic) [Example 24, 5-(5-chloro-1-methyl-6-oxo-1,6-dihydropyridin-3-yl)-4-(4-chlorophenyl)-1-cyclopropyl-3-methyl-4,5-dihydropyrrolo[3,4-c]pyrazol-6(1H)-one]
10 | 360 | 730 | 5.6 | 370 | Cc1[nH]nc2c1C(c1ccc(Cl)cc1)N(c1cc(Cl)c(=O)n(C)c1)C2=O (stereo not drawn) [Example 5, 5-(5-chloro-1-methyl-6-oxo-1,6-dihydropyridin-3-yl)-4-(4-chlorophenyl)-3-methyl-4,5-dihydropyrrolo[3,4-c]pyrazol-6(2H)-one]
11 | 190 | 350 | 3.5 | 180 | Cc1c2c(nn1C)C(=O)N(c1cc(Cl)c(=O)n(C)c1)C2c1ccc(Cl)cc1 (stereo not drawn) [Example 6, 5-(5-chloro-1-methyl-6-oxo-1,6-dihydropyridin-3-yl)-4-(4-chlorophenyl)-2,3-dimethyl-4,5-dihydropyrrolo[3,4-c]pyrazol-6(2H)-one]
12 | 140 | 180 | 1.3 | 97 | Cc1c2c(nn1C1CC1)C(=O)N(c1cc(Cl)c(=O)n(C)c1)C2c1ccc(Cl)cc1 (stereo not drawn) [Example 17, 5-(5-chloro-1-methyl-6-oxo-1,6-dihydropyridin-3-yl)-4-(4-chlorophenyl)-2-cyclopropyl-3-methyl-4,5-dihydropyrrolo[3,4-c]pyrazol-6(2H)-one]
13 | 140 | 320 | 3.3 | 160 | Cc1cc(N2C(=O)c3nn(C)c(C)c3C2c2ccc(Cl)cc2)cn(C)c1=O (stereo not drawn) [Example 28, 4-(4-chlorophenyl)-5-(1,5-dimethyl-6-oxo-1,6-dihydropyridin-3-yl)-2,3-dimethyl-4,5-dihydropyrrolo[3,4-c]pyrazol-6(2H)-one]
14 | 170 | 140 | 1.2 | 140 | Cn1cc(N2C(=O)c3nn(C4CC4)cc3C2c2ccc(Cl)cc2)cc(Cl)c1=O (stereo not drawn) [Example 37, 5-(5-chloro-1-methyl-6-oxo-1,6-dihydropyridin-3-yl)-4-(4-chlorophenyl)-2-cyclopropyl-4,5-dihydropyrrolo[3,4-c]pyrazol-6(2H)-one]
15 | 96 | 75 | 0.38 | 85 | Cc1cc(N2C(=O)c3nn(C(C)C)cc3C2c2ccc(Cl)cc2)cn(C)c1=O (stereo not drawn) [Example 41, 4-(4-chlorophenyl)-5-(1,5-dimethyl-6-oxo-1,6-dihydropyridin-3-yl)-2-isopropyl-4,5-dihydropyrrolo[3,4-c]pyrazol-6(2H)-one]
16 | 100 | 91 | 0.45 | 89 | CC(C)n1cc2c(n1)C(=O)N(c1cc(Cl)c(=O)n(C)c1)C2c1ccc(Cl)cc1 (stereo not drawn) [Example 42, 5-(5-chloro-1-methyl-6-oxo-1,6-dihydropyridin-3-yl)-4-(4-chlorophenyl)-2-isopropyl-4,5-dihydropyrrolo[3,4-c]pyrazol-6(2H)-one]
17 | 31 | 41 | 19 | 40 | Cc1nn(C2CC2)c2c1[C@@H](c1ccc(F)cc1F)N(c1cc(C)c3nnc(C)n3c1)C2=O [Example 188, (S)-1-cyclopropyl-4-(2,4-difluorophenyl)-5-(3,8-dimethyl-[1,2,4]triazolo[4,3-a]pyridin-6-yl)-3-methyl-4,5-dihydropyrrolo[3,4-c]pyrazol-6(1H)-one]
18 | 22 | 28 | 12 | 25 | Cc1nn(C2CC2)c2c1[C@@H](c1ccc(Cl)cc1F)N(c1cc(C)c3nnc(C)n3c1)C2=O [Example 190, (S)-4-(4-chloro-2-fluorophenyl)-1-cyclopropyl-5-(3,8-dimethyl-[1,2,4]triazolo[4,3-a]pyridin-6-yl)-3-methyl-4,5-dihydropyrrolo[3,4-c]pyrazol-6(1H)-one]
